Source: PMC10592247 (Molecular cancer therapeutics, 2023)

Legend:
22Rv1 cells = assay: Dextran uptake assay; format: cell-based; settings: 2µM for 30min before assay, TMR-dextran 1 mg/mL 30min
LNCaP-abl cells = assay: Cell viability after pre-incubation with endocytosis pathway inhibitors; format: cell-based; settings: EIPA 50µM 30min, then compound 10µM, PrestoBlue after 3 days, n=2

| SMILES | macropinocytosis (TMR-dextran uptake) (22Rv1 cells) | antiproliferative activity after EIPA pre-incubation (LNCaP-abl cells) |
| --- | --- | --- |
| CC(C)(C)C(=O)Nc1ccc2c(c1)C(=O)C(=O)c1ccccc1-2 [SF16170, SF1670] | enhanced macropinocytosis | – |
| CNC(=O)c1ccc(N2C(=S)N(c3ccc(C#N)c(C(F)(F)F)c3)C(=O)C2(C)C)cc1F [enzalutamide, Enzalutamide] | – | did not affect |
| C#C[C@]1(O)CC[C@H]2[C@@H]3CCC4=CC(=O)CC[C@]4(C)[C@H]3CC[C@@]21C [ethisterone, Ethisterone] | – | did not affect |
